Experimental data from patent publication US20220288052A1, “COMPOUND FOR COMBINATION TREATMENT” (priority 2019, published 2022).
Like-named read-outs stand apart in the source and are kept apart here.

How the values were obtained:
[1] = biological target: DA transporter (Rattus norvegicus, UniProt P23977); experiment: ^3H-uptake rat, DA transporter; format: biochemical
Description: (§1) Compound (I) has been characterized as a monoamine reuptake inhibitor, based on the profile in a series of functional assays (Table 2).

[2] = Metabolic stability in liver microsomes, human; format: in vitro ADME
Description: (§2) The metabolic stability of compound (I) was tested in liver microsomes from all in house available species at 1 and 5 μM. One metabolite of 16 mass units higher than parent, was found in all incubations, except with human liver microsomes.

[3] = system: plasma protein; experiment: Plasma protein binding by equilibrium dialysis, rat; format: in vitro ADME
Description: The plasma protein binding was tested in rat, mouse, dog and human plasma by equilibrium dialysis. The plasma protein binding of this compound is remarkably low (Table 24).

[4] = biological target: DA transporter (Homo sapiens, UniProt Q01959); experiment: ^3H-uptake human, DA transporter; format: biochemical
Description: as §1

[5] = Metabolic stability in liver microsomes, monkey; format: in vitro ADME
Description: as §2

[6] = biological target: T1, Serotonin 5-HT3 (Homo sapiens, UniProt P46098); experiment: MDS LeadProfilingScreen, Serotonin 5-HT3; format: binding
T1 sequence (P46098 24-478): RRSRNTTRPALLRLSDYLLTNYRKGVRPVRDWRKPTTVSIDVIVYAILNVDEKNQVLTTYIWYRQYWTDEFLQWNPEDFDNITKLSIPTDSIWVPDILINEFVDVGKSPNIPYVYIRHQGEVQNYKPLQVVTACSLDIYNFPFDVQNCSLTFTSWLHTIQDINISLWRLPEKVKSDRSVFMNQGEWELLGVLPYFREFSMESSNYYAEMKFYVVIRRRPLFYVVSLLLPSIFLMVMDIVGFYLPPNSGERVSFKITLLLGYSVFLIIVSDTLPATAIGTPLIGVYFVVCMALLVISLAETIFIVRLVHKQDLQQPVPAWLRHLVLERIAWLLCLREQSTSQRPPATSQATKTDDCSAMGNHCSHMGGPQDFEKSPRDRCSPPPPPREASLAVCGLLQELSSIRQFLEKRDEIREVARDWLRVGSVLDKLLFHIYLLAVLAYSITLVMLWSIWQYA

[7] = Exposure and tissue distribution after 14 days repeat dosing, mouse; format: in vivo; conditions: for concentration at 2 h / Kp at 2 h: mouse, po, 2 h post last dose
Description: Single time point data is available from two 14 days repeat dose studies in mice and rats dosed to both sexes. The three low doses were performed together as one study and the top dose was performed at another occasion as a satellite study.
Samples were taken 2 h post last dose.
Plasma, brain and liver were taken 2 h post last dose.

[8] = system: mice erectile tissue; experiment: Penile flow by laser doppler in mice; format: in vivo, mouse
Description: FIG. 33: Flow laser doppler raw data from mice erectile function (top), and average flow changes (EF) in mice erectile tissue (bottom). The increase in penile flow induced by compound (I) (1 mg/kg) was highly significant and increased 4.99 times, n=2.
A laser doppler flow probe was positioned in situ in mice erectile tissue for measurement of penile basal flow in the absence and the presence of compound (I).

[9] = Bioavailability study in dog; format: in vivo; conditions: for half-life / AUC(0-inf) / Cmax / Tmax / bioavailability / Vd / clearance: plasma; for bioavailability: 2.5 mg/kg p.o. vs 0.5 mg/kg i.v.
Description: A bioavailability study was also conducted in dogs. […] The i.v. dose, which was given 7 days later, was chosen as 0.5 mg/kg in order to prevent observable CNS effects. The difference between the p.o. and the i.v. dose might overestimate the bioavailability to a certain extent. […] T½ is in the same range in the two dogs and after both p.o. and i.v. administration (1.4-1.7 h).

[10] = 5 days p.o. tolerated dose study in female mice (non-GLP); format: in vivo, mouse; conditions: p.o. 5 days, 3, 5, 15, 30, 60 mg/kg
[11] = po, Female beagle dog, 2.5 mg/kg p.o.
[12] = po, Male beagle dog, 2.5 mg/kg p.o.

DA transporter (Homo sapiens, UniProt Q01959), sequence (Q01959 whole entry): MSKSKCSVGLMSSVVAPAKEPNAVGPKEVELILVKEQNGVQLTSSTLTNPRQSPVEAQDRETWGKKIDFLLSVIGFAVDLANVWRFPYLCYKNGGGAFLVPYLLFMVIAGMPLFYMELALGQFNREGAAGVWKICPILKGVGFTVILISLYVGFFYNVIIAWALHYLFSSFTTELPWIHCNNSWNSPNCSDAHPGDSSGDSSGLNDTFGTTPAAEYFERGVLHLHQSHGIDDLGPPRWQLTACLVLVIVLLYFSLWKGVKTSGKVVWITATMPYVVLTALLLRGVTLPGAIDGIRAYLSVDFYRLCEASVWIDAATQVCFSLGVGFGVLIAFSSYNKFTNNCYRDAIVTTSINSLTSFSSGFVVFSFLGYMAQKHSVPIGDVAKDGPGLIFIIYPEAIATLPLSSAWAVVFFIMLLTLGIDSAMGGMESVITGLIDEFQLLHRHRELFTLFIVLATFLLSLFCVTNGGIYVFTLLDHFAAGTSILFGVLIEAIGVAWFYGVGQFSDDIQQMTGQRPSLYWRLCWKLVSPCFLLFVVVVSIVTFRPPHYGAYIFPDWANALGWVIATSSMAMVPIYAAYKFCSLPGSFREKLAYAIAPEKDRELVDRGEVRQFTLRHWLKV
DA transporter (Rattus norvegicus, UniProt P23977), sequence (P23977 whole entry): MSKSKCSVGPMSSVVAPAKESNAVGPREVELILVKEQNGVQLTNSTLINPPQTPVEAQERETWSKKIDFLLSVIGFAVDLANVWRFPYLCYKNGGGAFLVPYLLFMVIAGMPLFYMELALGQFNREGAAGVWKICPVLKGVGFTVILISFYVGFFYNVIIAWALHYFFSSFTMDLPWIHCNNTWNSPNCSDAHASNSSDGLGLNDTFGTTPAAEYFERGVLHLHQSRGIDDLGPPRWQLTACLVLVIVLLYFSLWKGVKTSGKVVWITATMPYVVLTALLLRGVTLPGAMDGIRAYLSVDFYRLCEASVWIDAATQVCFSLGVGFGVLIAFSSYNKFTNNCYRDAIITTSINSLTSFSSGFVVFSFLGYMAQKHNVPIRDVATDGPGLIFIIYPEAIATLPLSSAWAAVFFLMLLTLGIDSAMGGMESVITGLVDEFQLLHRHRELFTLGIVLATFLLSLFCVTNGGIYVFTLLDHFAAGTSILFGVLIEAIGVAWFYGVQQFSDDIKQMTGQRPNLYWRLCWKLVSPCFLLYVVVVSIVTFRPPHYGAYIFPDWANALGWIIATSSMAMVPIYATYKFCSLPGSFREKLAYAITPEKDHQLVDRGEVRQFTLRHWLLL

SMILES: O=c1ccc2ccc(O[C@@H]3C[C@H]4CC[C@@H](C3)N4)cc2o1 [Compound (I), exo-7-(8-aza-bicyclo[3.2.1]oct-3-yloxy)-chromen-2-one]
- IC50 [1]: 260 nM
- Metabolite (mass units higher than parent) [2]: None
- Stability at 1 μM [2]: 94%
- Stability at 5 μM [2]: 93%
- fraction unbound at 81 ng/ml ([3]; 81 ng/ml): 0.566
- fraction unbound at 271 ng/ml ([3]; 271 ng/ml): 0.65
- fraction unbound at 813 ng/ml ([3]; 813 ng/ml): 0.582
- fraction unbound at 2710 ng/ml ([3]; 2710 ng/ml): 0.635
- IC50 [4]: 100 nM
- Ki [4]: 100 nM
- Human transporter ratio ([4]; DA versus 5-HT): 56
- Stability at 1 μM [5]: 79%
- Stability at 5 μM [5]: 88%
- Ki [6]: 1040 nM
- Separation to transporter hDAT ([6]; 5-HT3 Ki versus hDAT Ki 155 nM): x6.7
- Separation to transporter hNET ([6]; 5-HT3 Ki versus hNET Ki 594 nM): x1.7
- inhibition at 10 µM ([6]; Serotonin 5-HT3, Human, 10 μM): 86%
- concentration at 2 h ([7]; NMRI, brain, Female mice, 15 mg/kg p.o. 14 days, read-out: Brain concentration): 2640 ng/g
- Kp at 2 h ([7]; NMRI, brain, Female mice, 15 mg/kg p.o. 14 days, read-out: Brain/plasma ratio): 7
- concentration at 2 h ([7]; NMRI, brain, Female mice, 30 mg/kg p.o. 14 days, read-out: Brain concentration): 7070 ng/g
- Kp at 2 h ([7]; NMRI, brain, Female mice, 30 mg/kg p.o. 14 days, read-out: Brain/plasma ratio): 6
- concentration at 2 h ([7]; NMRI, brain, Female mice, 60 mg/kg p.o. 14 days, read-out: Brain concentration): 11500 ng/g
- Kp at 2 h ([7]; NMRI, brain, Female mice, 60 mg/kg p.o. 14 days, read-out: Brain/plasma ratio): 6
- concentration at 2 h ([7]; NMRI, brain, Female mice, 90 mg/kg p.o. 14 days, read-out: Brain concentration): 17100 ng/g
- concentration at 2 h ([7]; NMRI, brain, Male mice, 15 mg/kg p.o. 14 days, read-out: Brain concentration): 1970 ng/g
- Kp at 2 h ([7]; NMRI, brain, Male mice, 15 mg/kg p.o. 14 days, read-out: Brain/plasma ratio): 7
- concentration at 2 h ([7]; NMRI, brain, Male mice, 30 mg/kg p.o. 14 days, read-out: Brain concentration): 4720 ng/g
- Kp at 2 h ([7]; NMRI, brain, Male mice, 30 mg/kg p.o. 14 days, read-out: Brain/plasma ratio): 6
- concentration at 2 h ([7]; NMRI, brain, Male mice, 60 mg/kg p.o. 14 days, read-out: Brain concentration): 8080 ng/g
- Kp at 2 h ([7]; NMRI, brain, Male mice, 60 mg/kg p.o. 14 days, read-out: Brain/plasma ratio): 6
- concentration at 2 h ([7]; NMRI, brain, Male mice, 90 mg/kg p.o. 14 days, read-out: Brain concentration): 21100 ng/g
- Kp at 2 h ([7]; NMRI, in vivo, Female mice, 15 mg/kg p.o. 14 days, read-out: Liver/plasma ratio): 18
- Kp at 2 h ([7]; NMRI, in vivo, Female mice, 30 mg/kg p.o. 14 days, read-out: Liver/plasma ratio): 18
- Kp at 2 h ([7]; NMRI, in vivo, Female mice, 60 mg/kg p.o. 14 days, read-out: Liver/plasma ratio): 21
- Kp at 2 h ([7]; NMRI, in vivo, Male mice, 15 mg/kg p.o. 14 days, read-out: Liver/plasma ratio): 28
- Kp at 2 h ([7]; NMRI, in vivo, Male mice, 30 mg/kg p.o. 14 days, read-out: Liver/plasma ratio): 17
- Kp at 2 h ([7]; NMRI, in vivo, Male mice, 60 mg/kg p.o. 14 days, read-out: Liver/plasma ratio): 12
- concentration at 2 h ([7]; NMRI, liver, Female mice, 15 mg/kg p.o. 14 days, read-out: Liver concentration): 7160 ng/g
- concentration at 2 h ([7]; NMRI, liver, Female mice, 30 mg/kg p.o. 14 days, read-out: Liver concentration): 22500 ng/g
- concentration at 2 h ([7]; NMRI, liver, Female mice, 60 mg/kg p.o. 14 days, read-out: Liver concentration): 42000 ng/g
- concentration at 2 h ([7]; NMRI, liver, Male mice, 15 mg/kg p.o. 14 days, read-out: Liver concentration): 8220 ng/g
- concentration at 2 h ([7]; NMRI, liver, Male mice, 30 mg/kg p.o. 14 days, read-out: Liver concentration): 12700 ng/g
- concentration at 2 h ([7]; NMRI, liver, Male mice, 60 mg/kg p.o. 14 days, read-out: Liver concentration): 17700 ng/g
- concentration at 2 h ([7]; NMRI, plasma, Female mice, 15 mg/kg p.o. 14 days, read-out: Plasma concentration): 390 ng/mL
- concentration at 2 h ([7]; NMRI, plasma, Female mice, 30 mg/kg p.o. 14 days, read-out: Plasma concentration): 1280 ng/mL
- concentration at 2 h ([7]; NMRI, plasma, Female mice, 60 mg/kg p.o. 14 days, read-out: Plasma concentration): 2000 ng/mL
- concentration at 2 h ([7]; NMRI, plasma, Male mice, 15 mg/kg p.o. 14 days, read-out: Plasma concentration): 289 ng/mL
- concentration at 2 h ([7]; NMRI, plasma, Male mice, 30 mg/kg p.o. 14 days, read-out: Plasma concentration): 762 ng/mL
- concentration at 2 h ([7]; NMRI, plasma, Male mice, 60 mg/kg p.o. 14 days, read-out: Plasma concentration): 1420 ng/mL
- Linearity of kinetics after repeat dosing ([7]; mice, 15-90 mg/kg p.o. 14 days, 5% glucose): tendency to sub-linear kinetics
- Kp at 2 h ([7]; brain, Female mice, 90 mg/kg p.o. 14 days, read-out: Brain/plasma ratio): 4
- Kp at 2 h ([7]; brain, Male mice, 90 mg/kg p.o. 14 days, read-out: Brain/plasma ratio): 4
- Kp at 2 h ([7]; in vivo, Female mice, 90 mg/kg p.o. 14 days, read-out: Liver/plasma ratio): 16
- Kp at 2 h ([7]; in vivo, Male mice, 90 mg/kg p.o. 14 days, read-out: Liver/plasma ratio): 16
- concentration at 2 h ([7]; liver, Female mice, 90 mg/kg p.o. 14 days, read-out: Liver concentration): 63300 ng/g
- concentration at 2 h ([7]; liver, Male mice, 90 mg/kg p.o. 14 days, read-out: Liver concentration): 75000 ng/g
- concentration at 2 h ([7]; plasma, Female mice, 90 mg/kg p.o. 14 days, read-out: Plasma concentration): 3980 ng/mL
- concentration at 2 h ([7]; plasma, Male mice, 90 mg/kg p.o. 14 days, read-out: Plasma concentration): 4730 ng/mL
- Increase in penile flow ([8]; 1 mg/kg, n=2): 4.99 times
- Penile flow ([8]; infusion of 1 mg/kg): markedly increased
- half-life ([9]; both sexes, beagle, dog, other: p.o. and i.v., the two dogs, after both p.o. and i.v. administration, read-out: T½): 1.4 to 1.7 h
- CNS effects ([9]; dogs, after 2.5 mg/kg p.o.): some CNS effects were observed
- AUC(0-inf) ([9]; iv, Female beagle dog, 0.5 mg/kg i.v., read-out: AUC(0-∞) i.v.): 194 ng·h/mL
- half-life ([9]; iv, Female beagle dog, 0.5 mg/kg i.v., read-out: T½ i.v. (converted)): 1.4 h
- AUC(0-inf) ([9]; iv, Male beagle dog, 0.5 mg/kg i.v., read-out: AUC(0-∞) i.v.): 343 ng·h/mL
- half-life ([9]; iv, Male beagle dog, 0.5 mg/kg i.v., read-out: T½ i.v. (converted)): 1.6 h
- Cmax [9, 11]: 339 ng/mL
- Tmax [9, 11]: 0.5 h
- bioavailability ([9]; po, Female beagle dog): 114%
- AUC(0-inf) ([9]; po, Female beagle dog, 2.5 mg/kg p.o., read-out: AUC(0-∞) p.o.): 1110 ng·h/mL
- half-life ([9]; po, Female beagle dog, 2.5 mg/kg p.o., read-out: T½ p.o. (converted)): 1.6 h
- Cmax [9, 12]: 418 ng/mL
- Tmax [9, 12]: 0.5 h
- bioavailability ([9]; po, Male beagle dog): 84%
- AUC(0-inf) ([9]; po, Male beagle dog, 2.5 mg/kg p.o., read-out: AUC(0-∞) p.o.): 1440 ng·h/mL
- half-life ([9]; po, Male beagle dog, 2.5 mg/kg p.o., read-out: T½ p.o. (converted)): 1.7 h
- Vd ([9]; Female beagle dog): 5 L/kg
- clearance ([9]; Female beagle dog): 43.3 mL/min/kg
- Vd ([9]; Male beagle dog): 3.4 L/kg
- clearance ([9]; Male beagle dog): 25 mL/min/kg
- Activity [10]: increase in activity (sedation and stereotypic behaviour)
- Body weight [10]: no significant changes in bodyweight
